# Laboratory results reported in BigSolDB 2.1.
compound,measurement,setting,value
Clc1ccccc1C(c1ccccc1)(c1ccccc1)n1ccnc1,solubility (mole fraction),"in ethanol, 293.2 K",0.0154
same,solubility (mole fraction),"in ethanol, 298.2 K",0.0167
same,solubility (mole fraction),"in ethanol, 303.2 K",0.0216
same,solubility (mole fraction),"in ethanol, 308.2 K",0.025
same,solubility (mole fraction),"in ethanol, 313.2 K",0.0312
same,solubility (mole fraction),"in water, 293.2 K",2.42e-08
same,solubility (mole fraction),"in water, 298.2 K",2.92e-08
same,solubility (mole fraction),"in water, 303.2 K",3.38e-08
same,solubility (mole fraction),"in water, 308.2 K",3.77e-08
same,solubility (mole fraction),"in water, 313.2 K",4.15e-08
